Data as given in ChEMBL document CHEMBL1201862, “PubChem BioAssay data set” (2004).
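How tested: cells in 96-well plates exposed to compound for 48 hours at five concentrations. GI50 is the concentration that inhibits growth by half.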 Active and inactive are the calls of the source. Cut-off read from the data, not from the text of the source: active = GI50 up to about 1.1 µM and inactive = higher.

Legend:
Experiment in all cases: growth of human tumour cells (NCI), 48 h
NCI-H460 = test system: NCI-H460
U-251 = test system: U-251
SNB-19 = test system: SNB-19
NCI-H23 = test system: NCI-H23
MOLT-4 = test system: MOLT-4
K562 = test system: K562
CCRF-CEM = test system: CCRF-CEM
SW-620 = test system: SW-620
SF-295 = test system: SF-295
SK-MEL-28 = test system: SK-MEL-28
NCI-H522 = test system: NCI-H522
SK-MEL-2 = test system: SK-MEL-2
EKVX = test system: EKVX
OVCAR-5 = test system: OVCAR-5
OVCAR-8 = test system: OVCAR-8
HCT-116 = test system: HCT-116
M14 = test system: M14
LOX IMVI = test system: LOX IMVI
UACC-257 = test system: UACC-257

Structure (SMILES)	GI50 (NCI-H460)	GI50 (U-251)	GI50 (SNB-19)	GI50 (NCI-H23)	GI50 (MOLT-4)	GI50 (K562)	GI50 (CCRF-CEM)	GI50 (SW-620)	GI50 (SF-295)	GI50 (SK-MEL-28)	GI50 (NCI-H522)	GI50 (SK-MEL-2)	GI50 (EKVX)	GI50 (OVCAR-5)	GI50 (OVCAR-8)	GI50 (HCT-116)	GI50 (M14)	GI50 (LOX IMVI)	GI50 (UACC-257)
COc1ccc(C(Cl)=C(c2ccc(OCCN(C)C)cc2)c2ccc(OCCN(C)C)cc2)cc1	1.82 µM (inactive)	1.58 µM (inactive)	2.42 µM (inactive)	1.73 µM (inactive)	1.22 µM (inactive)	1.37 µM (inactive)	1.16 µM (inactive)	1.35 µM (inactive)	1.74 µM (inactive)	1.63 µM (inactive)	1.57 µM (inactive)	1.68 µM (inactive)	5.11 µM (inactive)	1.73 µM (inactive)	1.87 µM (inactive)	1.13 µM (inactive)	1.5 µM (inactive)		
COc1ccc(CNc2cnc3ccc(N)cc3n2)cc1	> 100 µM (inactive)		> 100 µM (inactive)	> 100 µM (inactive)	24.7 µM (inactive)	> 100 µM (inactive)	49.2 µM (inactive)	> 100 µM (inactive)	> 100 µM (inactive)	3.84 µM (inactive)	> 100 µM (inactive)	> 100 µM (inactive)	> 100 µM (inactive)	> 100 µM (inactive)	> 100 µM (inactive)	0.0622 µM (active)	> 100 µM (inactive)	> 100 µM (inactive)	> 100 µM (inactive)
Cc1nc2nnnn2c2c1C(=O)Nc1ccccc1N2	28.4 µM (inactive)	> 100 µM (inactive)	> 100 µM (inactive)	> 100 µM (inactive)	43.2 µM (inactive)	> 100 µM (inactive)	> 100 µM (inactive)	> 100 µM (inactive)	> 100 µM (inactive)	> 100 µM (inactive)	> 100 µM (inactive)	> 100 µM (inactive)	79.8 µM (inactive)		> 100 µM (inactive)	> 100 µM (inactive)	> 100 µM (inactive)	> 100 µM (inactive)	> 100 µM (inactive)
OCCN(/N=C\c1ccc2ccccc2c1)C1=NCCN1	29.4 µM (inactive)	24.9 µM (inactive)	32.4 µM (inactive)	27.7 µM (inactive)	18.2 µM (inactive)	14.4 µM (inactive)	27.6 µM (inactive)	21.1 µM (inactive)	31 µM (inactive)	19.3 µM (inactive)		20.3 µM (inactive)	40.5 µM (inactive)	24.2 µM (inactive)	48.4 µM (inactive)	26.7 µM (inactive)	18.6 µM (inactive)	16.3 µM (inactive)	
CCCCCCCCCCCCSC(=S)c1c(C)[nH]n(-c2ccccc2)c1=O		2.85 µM (inactive)	12.4 µM (inactive)	13.3 µM (inactive)	6.61 µM (inactive)	6.61 µM (inactive)	2.9 µM (inactive)	16.4 µM (inactive)	12.5 µM (inactive)	7.36 µM (inactive)			19.1 µM (inactive)	16.2 µM (inactive)	14 µM (inactive)		13.4 µM (inactive)	15.9 µM (inactive)	8.04 µM (inactive)
CN(C)CCNC(=O)c1cccc2[nH]c(-c3cccnc3)nc12	19.3 µM (inactive)	22.6 µM (inactive)	28.1 µM (inactive)	18.8 µM (inactive)	25.8 µM (inactive)	27.9 µM (inactive)	28.4 µM (inactive)	12.9 µM (inactive)	30.5 µM (inactive)	31.7 µM (inactive)		25.8 µM (inactive)	22.8 µM (inactive)	28.1 µM (inactive)	17.5 µM (inactive)	9.55 µM (inactive)	20.9 µM (inactive)	18.1 µM (inactive)	18.5 µM (inactive)
Cn1c(=O)c2c(nc3n2CCC(=O)N3)n(C)c1=O	> 100 µM (inactive)	> 100 µM (inactive)	> 100 µM (inactive)	> 100 µM (inactive)	> 100 µM (inactive)	> 100 µM (inactive)	> 100 µM (inactive)	> 100 µM (inactive)	> 100 µM (inactive)	> 100 µM (inactive)	> 100 µM (inactive)	> 100 µM (inactive)	> 100 µM (inactive)	> 100 µM (inactive)	> 100 µM (inactive)			> 100 µM (inactive)	> 100 µM (inactive)
NC1(CCCCCCCCCCC(=O)O)CNCCNCCNCCNC1	26.6 µM (inactive)		18.5 µM (inactive)	> 100 µM (inactive)	30.2 µM (inactive)	33.8 µM (inactive)	22.6 µM (inactive)	44.8 µM (inactive)	> 100 µM (inactive)	> 100 µM (inactive)	55.5 µM (inactive)	52.5 µM (inactive)	94.6 µM (inactive)	16 µM (inactive)	67.3 µM (inactive)	28.1 µM (inactive)	75.3 µM (inactive)		> 100 µM (inactive)
